US11802107B2, “Compounds and methods of use” (Signum Biosciences, Inc., priority 2017, dated 2023)
pIC50: −log10 of the molar value. Converted amounts (≈) assume the structure as drawn. Blank lines part the entries; values can stand above or below the molecule they belong to.

Columns and labels:
[1] = system: subjects with mild to moderate acne; assay: 8-week clinical study in subjects with mild to moderate acne; assay type: in vivo; design: scale not given here; conditions: E 1% w/w, BPO 3% w/w, human
Source text: Subjects used the assigned product at home for 8 weeks. Subjects returned post baseline at week 2, 4 and 8. At each visit subjects underwent expert clinical grading and test site photography. […] The severity of acne signs and symptoms on the faces of >18 yo subjects were clinically assessed by IGA scale during an 8-week Study period. In addition, UV light mode was utilized to observe porphyrins fluorescence (orange-red dots).

[2] = system: IL-8; assay: P. acnes-induced IL-8 protein on human PBMCs (ELISA); assay type: cell-based; conditions: PBMCs + live P. acnes 1:1, test material 30 PM, 24 hours
Procedure: (§1) Cryopreserved human Peripheral Blood Mononuclear cells (PBMCs) from healthy adult donors were obtained from Zen Bio, Inc (Cat No. SER-PBMC-F). Cells were cultured in 12-well plates with lymphocyte media (Cat No. LYMPH-1) and incubated with test materials ([…]) and live P. acnes (ATCC® 6919TM) at 1:1 PBMC: P. acnes bacteria ratio for 24 hours at 37° C. and 5% CO2. After incubation, cell media supernatants were harvested and used to measure pro-inflammatory cytokine levels (IL-8, TNF-α, IL-1b, IL-17) using ELISA kits (BD Biosciences® #557966, #555212, #555244; R&D Systems® #DY317). Total RNA was extracted from cells using the RNAqueous® kit (Ambion®; Cat No. 1912) and cDNA was obtained using the High Capacity RNA-to-cDNA kit (Applied Biosystems®; Cat No. 4387406). Quantitative PCR (qPCR) was performed using the TaqMan® Fast Advanced Master Mix (Applied Biosystems®; Cat No. 4444556) and specific TaqMan®-probes human gene primers CXCL8 (IL-8), IL1B (IL-1b), TNF (TNF-α), IL17A (IL-17A) and GAPDH to calculate the relative gene fold expression change per treatment. Gene expression analysis was performed using the comparative Ct method (also known as the 2-[delta][delta]Ct) approach by comparing the Ct values of P. acnes-only treated cells with the untreated samples and normalized to GAPDH gene expression as endogenous housekeeping gene.

[3] = system: P. acnes (ATCC 6919); assay: Minimal inhibitory concentration (MIC) against P. acnes; assay type: cell-based, Propionibacterium acnes; conditions: Cutibacterium acnes, ATCC6919, 72 h, P. acnes ATCC 6919, 10^6 CFU/mL, read-out: MIC
Procedure: To determine minimal inhibitory concentration (MIC), reagents were dissolved in vehicle (5% v/v) and then added to bacteria suspension. P. acnes (ATCC® 6919TM) at 10^6 CFU/mL was incubated with test materials at the concentrations of two-fold serial dilution (0.25-500 μg/mL) and incubated for 72 hours (P. acnes).

[4] = system: IL-17; assay: P. acnes-induced IL-17 protein on human PBMCs (ELISA); assay type: cell-based; conditions: PBMC, PBMCs + live P. acnes 1:1, test material 30 PM, 24 hours
Procedure: as §1

[5] = system: HCAP18; assay: NHEK antimicrobial peptide gene expression, hCAP18; assay type: cell-based, human; conditions: 10 μM, 24 hours, qPCR, normalized to GAPDH
Procedure: (§2) Normal human epidermal keratinocytes (NHEKs) from neonatal donors were obtained from Thermo-Fisher (Cat No. C-001-5C). Cells were cultured in 6-well plates for 24 hours before treatments with EpiLife media (Cat No. MEPI500CA) supplemented with keratinocytes growth supplement (Cat No. 50015). On Day 2, media was removed and incubated with test materials (10 μM) for 24 hours at 37° C. and 5% CO2. On Day 3, total RNA was extracted from cells using the RNAqueous® kit (Ambion®; Cat No. 1912) and cDNA was obtained using the High Capacity RNA-to-cDNA kit (Applied Biosystems®; Cat No. 4387406). Quantitative PCR (qPCR) was performed using the TaqMan® Fast Advanced Master Mix (Applied Biosystems®; Cat No. 4444556) and specific TaqMan®-probes human gene primers DEFB4B (hBD2), DEFB103 (hBD3), HCAP18 and GAPDH to calculate the relative gene fold expression change per treatment. Gene expression analysis was performed using the comparative Ct method (also known as the 2-[delta][delta]Ct) approach by comparing the Ct values of the treated samples with the untreated samples and normalized to GAPDH gene expression as endogenous housekeeping gene. Results were represented as fold-expression/untreated cells.

[6] = system: P. acnes (ATCC 6919) biofilms; assay: P. acnes biofilm eradication (MBEC), crystal violet; assay type: cell-based, Propionibacterium acnes; conditions: 24 hours, ≥80% eradication vs vehicle
Procedure: P. acnes (ATCC® 6919™) was cultured as described above. Bacteria biofilms were established by seeding P. acnes cultures in 96-well plates and incubating for 24 hours without agitation. Later, biofilms were incubated with test materials for 24 hours. Remaining biofilms were washed and stained with crystal violet. […] The absorbance was measured at 595 nm in a microplate reader. […] Results from disk diffusion susceptibility testing (Kirby-Bauer Method) after 72 hours incubation were also obtained.

[7] = system: IL-1b; assay: P. acnes-induced IL-1b protein on human PBMCs (ELISA); assay type: cell-based; conditions: PBMC, PBMCs + live P. acnes 1:1, test material 30 PM, 24 hours
Procedure: as §1

[8] = system: TNF-α; assay: P. acnes-induced TNF-α protein on human PBMCs (ELISA); assay type: cell-based; conditions: PBMCs + live P. acnes 1:1, test material 30 PM, 24 hours
Procedure: as §1

[9] = system: P. acnes (ATCC 6919); assay: Minimal bactericidal concentration (MBC) against P. acnes; assay type: cell-based, Propionibacterium acnes; conditions: Cutibacterium acnes, ATCC6919; P. acnes 10^7 CFU/mL, in PBS, anaerobic conditions
[10] = system: DEFB4B (hBD2); assay: NHEK antimicrobial peptide gene expression, hBD2; assay type: cell-based, human; conditions: 10 μM, 24 hours, qPCR, normalized to GAPDH
Procedure: as §2

[11] = system: IL-8; assay: Peptidoglycan (PGN)-induced IL-8 on NHEKs; assay type: cell-based, human; conditions: Homo sapiens; NHEK, PGN 10 μg/mL, 24 hours, ELISA; read-out: PGN-NHEK 1L-8 Protein IC50
Procedure: (§3) Normal human epidermal keratinocytes (NHEKs) from neonatal donors were obtained from Thermo-Fisher (Cat No. C-001-5C). Cells were cultured in 96-well plates for 24 hours with EpiLife media (Cat No. MEPI500CA) supplemented with keratinocytes growth supplement (Cat No. S0015). On Day 2, media was removed and replaced with supplement-depleted medium for 24 hours. On Day 3, media was removed and cells were pre-treated with test materials (≤1 μM) for 2 hours and later co-treated with test materials and PGN (Sigma Aldrich, Cat No. 77140) at 10 μg/mL and incubated for 24 hours at 37° C. and 5% CO2. PGN is a TLR-2 agonist. After incubation, cell media supernatants were harvested and used to measure pro-inflammatory cytokine levels (IL-8) using ELISA kit (BD Biosciences® #555244). Results were represented as percent of inhibition relative to untreated and PGN-only treated cells. IC50 values were determined by non-linear regression analysis using the four-parameter logistic equation.

[12] = system: DEFB103 (hBD3); assay: NHEK antimicrobial peptide gene expression, hBD3; assay type: cell-based, human; conditions: 10 μM, 24 hours, qPCR, normalized to GAPDH
Procedure: as §2

[13] = system: Swiss Webster (ICR) mice; assay: TPA-induced skin irritation in vivo model (mouse ear); conditions: topical @ 1% w/v, 24 hour
Procedure: Outbred male Swiss Webster (ICR) mice were purchased from Hilltop Lab Animals (Scottdale, PA) and were used between 10 and 12 weeks of age and we followed a similar protocol previously described (Gordon et al., 2008). Mice received 1.2 μg/20 μl TPA dissolved in acetone (10 μl applied both to the dorsal and ventral surfaces of the mouse ear using a solvent pipette) to each ear to induce acute irritation (6 per group). Test Materials were co-treated with TPA or applied 5 minutes after TPA dose, at various concentrations (0.6 to 800 μg/20 μl) in ethanol. After 24 hour treatment, edema was measured by ear thickness.

[14] = system: IL-13; assay: Concanavalin-A-induced IL-13 on PBMCs; assay type: cell-based; conditions: Homo sapiens, PBMC, ConA, 24 hours, ELISA
[15] = system: IL-31; assay: Anti-CD3/CD28+IL-4-induced IL-31 on PBMCs; assay type: cell-based; conditions: Homo sapiens, PBMC, anti-CD3/CD28 beads + 50 ng/mL IL-4, 48 hours, ELISA, read-out: TCR/IL-4-PBMCs IL-31 IC50
Procedure: Cryopreserved human Peripheral Blood Mononuclear cells (PBMCs) from healthy adult donors were obtained from Zen Bio, Inc (Cat No. SER-PBMC-F). Cells were cultured in 96-well plates with lymphocyte media (Cat No. LYMPH-1) and were pre-treated with test materials (≤100 μM) for 2 hours and later co-treated with test materials and anti-CD3/CD28 beads (Thermo-Fisher; Cat No. 11131D) and 50 ng/mL recombinant human IL-4 (R&D Systems® #204-IL) for 48 hours at 37° C. and 5% CO2. After incubation, cell media supernatants were harvested and used to measure cytokine levels (IL-22, IL-31) using ELISA kits (R&D Systems® #DY782, #DY2824). Results were represented as percent of inhibition relative to untreated and anti-CD3/CD28+IL-4 only treated cells. IC50 values were determined by non-linear regression analysis using the four-parameter logistic equation.

[16] = system: Balb/C mice; assay: Oxazolone-induced delayed-type hypersensitivity (DTH) in vivo model; conditions: Mus musculus, topical @1%, 24 hours, read-out: Edema % inhibition
Procedure: Inbred male Balb/C mice were purchased from Hilltop Lab Animals (Scottdale, PA) and were used between 8 and 10 weeks of age. Mice backs were shaved and 100 μl of 3% v/v Oxazolone (Sigma Aldrich, Cat No. E0753) in acetone/olive oil (4:1) was applied to dorsal skin for sensitization. On Day 7, ears were challenged with 0.5% v/v Oxazolone and 30 minutes after challenge, test materials at 3% w/v were applied to ears (10 μl applied both to the dorsal and ventral surfaces of the mouse ear using a solvent pipette) and 24 hours later, skin thickness (edema) was measured. A 6-mm punch biopsy was obtained from each ear, snap frozen in liquid nitrogen. Ear skin biopsy punches were pulverized using FastPrep®-24 Biopulverizer (MP Biomedical, CatNo. 116004500) and Lysing Matrix A tubes (CatNo. 16910050). Protein extracts were obtained using 500 μL/tissue of cold T-PER buffer (ThermoFisher, CatNo. 78510) with Protease inhibitors (Sigma-Aldich, CatNo. 58820-20TAB). Soluble protein fractions were used to measure cytokine levels (IL-4) using ELISA kit (BD Biosciences® #555232). Results were represented as percent of inhibition relative to unsensitized and sensitized-only treated animals. Vehicle for presently disclosed compounds was 60:40 H2O:EtOH and 1:1 Acetone:EtOH for AN2718. (n=5-15 animals per treatment group).
Compound C was further analyzed at various dosages against 0.4 mg/ear of […] by the above protocol, data representing the average±S.E. of cumulative data from three independent experiments (n=12-15 mice per group) is shown below: […]

[17] = system: IL-8; assay: TPA-induced IL-8 on NHEKs; assay type: cell-based; conditions: Homo sapiens; NHEK, TPA 5 ng/mL, 24 hours, ELISA
Procedure: as §3, with “TPA” for “PGN”, “P8139)” for “77140)”, “5 ng/mL” for “10 μg/mL”, “CO2.” for “CO2. PGN is a TLR-2 agonist.”, “TPA-only” for “PGN-only”

- MIC [3]: 200 µg/mL (≈ 826 µM)
- pIC50 [11]: < 6.00
Structure (SMILES): O=C(OOC(=O)c1ccccc1)c1ccccc1 [Benzoyl Peroxide, reference compound]
- Investigator Global Assesment (IGA) Scale ([1]; 2 week): 2
- Investigator Global Assesment (IGA) Scale ([1]; 4 week): 1
- Investigator Global Assesment (IGA) Scale ([1]; 8 week): 1
- Investigator Global Assesment (IGA) Scale ([1]; Baseline): 3
- IL-8 Protein % inhibition [2]: 78%
- inhibition at 30 pM [4]: 15%
- hCAP18 gene expression [5]: 2.8 Fold-expression/untreated cells
- MBEC [6]: 367 μg/mL and (1515) μM
- inhibition at 30 pM [7]: 33%
- TNFa-Protein % inhibition [8]: 0%
- MBC [9]: > 200 µg/mL
- hBD2 gene expression [10]: 1.6 Fold-expression/untreated cells
- hBD3 gene expression [12]: 1.2 Fold-expression/untreated cells

- pIC50 [14]: 6.22
- pIC50 [15]: 9.40
- pIC50 [17]: 8.00
Structure (SMILES): C=CC[C@@H]1/C=C(\C)C[C@H](C)C[C@H](OC)[C@H]2O[C@@](O)(C(=O)C(=O)N3CCCC[C@H]3C(=O)O[C@H](/C(C)=C/[C@@H]3CC[C@@H](O)[C@H](OC)C3)[C@H](C)[C@@H](O)CC1=O)[C@H](C)C[C@@H]2OC [FK506, reference compound]
- MPO (% inhibition) [13]: 81%
- Edema (% inhibition) ([13]; ear thickness): 0%
- inhibition in vivo at 1 % [16]: 32%
